*1 amine or outer side, *2 acyl side, *3 side chain or, on linkers, in order; H or OH if unused. Where a SMILES comes first, the peptide text is derived from it. Side-chain parts run from the residue outwards. [ ]: non-standard residue; d: D form. The star is where a group is joined. C18 diacid = O=C(O)CCCCCCCCCCCCCCCCC(=O)*; γGlu = O=C(O)[C@H](CCC(=O)[*:2])N[*:1]; AEEA = NCCOCCOCC(=O)O; Aib = CC(C)(N)C(=O)O
What was measured:
human GIP receptor = biological target: T1, human GIP receptor (Homo sapiens, UniProt P48546); test: cAMP HTRF assay in human adipocytes endogenously expressing the human GIP receptor; assay type: cell-based; conditions: for Emax: read-out: hGIPR Emax
T1 construct: human adipocytes endogenously expressing the human GIP receptor; host or cells: human preadipocytes (Lonza) differentiated to adipocytes
T1 sequence (P48546 22-466): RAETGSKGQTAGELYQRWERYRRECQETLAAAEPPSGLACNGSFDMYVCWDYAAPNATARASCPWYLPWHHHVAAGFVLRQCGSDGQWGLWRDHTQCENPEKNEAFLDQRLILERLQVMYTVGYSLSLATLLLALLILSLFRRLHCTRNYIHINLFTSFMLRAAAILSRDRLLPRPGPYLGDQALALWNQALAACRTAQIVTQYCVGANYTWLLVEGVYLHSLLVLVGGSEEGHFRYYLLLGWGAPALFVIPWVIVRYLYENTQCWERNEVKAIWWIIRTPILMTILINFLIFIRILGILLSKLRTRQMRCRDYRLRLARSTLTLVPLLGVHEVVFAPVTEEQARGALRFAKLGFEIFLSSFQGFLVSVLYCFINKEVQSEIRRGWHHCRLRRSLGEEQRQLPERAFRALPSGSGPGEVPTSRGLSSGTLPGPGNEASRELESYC
Method: For this, one vial of human preadipocytes (˜10^6 cells; Lonza) was thawed in a T-75 cell culture dish.
After 3 days, the cells were washed with PBS and 1.5 ml Trypsin, incubated for 4 min, then resuspended in medium, centrifugated for 10 min @ 300 rcf RT, resuspended again and distributed to four T-75 cell culture dishes.
After 5 days, the cells were washed with PBS and 1.5 ml Trypsin, incubated for 4 min, then resuspended in medium, centrifugated for 10 min @ 300 rcf RT, resuspended again and sawn in T-75 dishes (2.5×10^6 cells per dish) in 15 ml Differentiation medium each.
After 6 days of differentiation, 5000 cells per well were dispensed on a 96-well plate (#CLS3694 from Corning®, Sigma-Aldrich). For measurement of cAMP generation, 25 μL of test compound was added to each well of the 96-well plate, followed by incubation for 30 min at room temperature.
The cAMP generated following test compound stimulation was determined using a kit from Cisbio Corp. based on HTRF (Homogenous Time Resolved Fluorescence). The cAMP assay was performed according to manufacturer's instructions (Cisbio).
The cAMP content of cells was determined using a kit from Cisbio Corp. based on HTRF (Homogenous Time Resolved Fluorescence).

physchem = assay type: physicochemical
Method: Prior to the solubility measurement of a peptide batch, its purity was determined through UHPLC/MS. […] Therefore, solutions from solid samples were prepared in a buffer system with a concentration of 10 mg/ml compound based on the previously determined % purity: Solubility buffer system A) 100 mM phosphate buffer pH 7.4 […] Solubility buffer system C) 100 mM phosphate buffer pH 7.4, 2.7 mg/ml m-cresol UHPLC-UV was performed after 1 h of gentle agitation and storage at 5° C. over night (24 h) from the supernatant, which was obtained after 15 min of centrifugation at 2500 RCF (relative centrifugal acceleration). […] The different UV extinction coefficients of sample and reference peptide were calculated based on the different amino acid sequences and considered in the concentration calculation. The analytical method used was Analytical UHPLC Method A. Peptide samples were prepared in solubility buffer system A or C and solubility was assessed as described in Methods.

[1] = Dynamic light scattering (DLS) for the assessment of physical stability; assay type: physicochemical
Description: A monochromatic and coherent light beam (laser) is used to illuminate the liquid sample. Dynamic Light Scattering (DLS) measures light scattered from particles (1 nm≤radius≤1 μm) that undergo Brownian motion. This motion is induced by collisions between the particles and solvent molecules, that themselves are moving due to their thermal energy. The diffusional motion of the particles results in temporal fluctuations of the scattered light (R. Pecora, Dynamic Light Scattering: Applications of Photon Correlation Spectroscopy, Plenum Press, 1985).
The scattered light intensity fluctuations are recorded and transformed into an autocorrelation function. By fitting the autocorrelation curve to an exponential function, the diffusion coefficient D of the particles in solution can be derived. The diffusion coefficient is then used to calculate the hydrodynamic radius Rh (or apparent Stokes radius) through the Stokes-Einstein equation assuming spherical particles. This calculation is defined in ISO 13321 and ISO 22412 (International Standard ISO13321 Methods for Determination of Particle Size Distribution Part 8: Photon Correlation Spectroscopy, International Organisation for Standardisation (ISO) 1996; International Standard ISO22412 Particle Size Analysis—Dynamic Light Scattering, International Organisation for Standardisation, 2008).
In case of polydisperse samples, the autocorrelation function is the sum of the exponential decays corresponding to each of the species. The temporal fluctuations of the scattered light can then be used to determine the size distribution profile of the particle fraction or family. The first order result is an intensity distribution of scattered light as a function of the particle size. The intensity distribution is naturally weighted according to the scattering intensity of each particle fraction or family. For biological materials or polymers, the particle scattering intensity is proportional to the square of the molecular weight. Thus, small amount of aggregates/agglomerates or presence or a larger particle species can dominate the intensity distribution. However, this distribution can be used as a sensitive detector for the presence of large material in the sample.
The DLS technique produces distributions with inherent peak broadening. The polydispersity index % Pd is a measure of the width of the particle size distribution and is calculated by standard methods described in ISO13321 and ISO22412 [International Standard ISO13321 Methods for Determination of Particle Size Distribution Part 8: Photon Correlation Spectroscopy, International Organisation for Standardisation (ISO) 1996; International Standard ISO22412 Particle Size Analysis—Dynamic Light Scattering, International Organisation for Standardisation (ISO) 2008].
Solutions from solid samples were prepared in buffer systems (see below) with a target concentration of 300 μM compound based on the previously determined % purity.
DLS buffer system A) 20 mM phosphate buffer pH 7.4
DLS buffer system B) 8 mM phosphate buffer pH 7.4, 14 mg/ml propylene glycol, 5.5 mg/ml phenol
DLS buffer system C) 100 mM phosphate buffer pH 7.4, 2.7 mg/ml m-cresol Solutions were filtered through 0.22 μm pore size and filled into sterilized glass containers under laminar flow conditions. For every peptide solution, the apparent hydrodynamic radius (Rh), the corresponding Scattering Intensity (I), and the Mass Contribution (M) were determined as an average over 3-6 replicates from the intensity distribution of the scattered light averaging only high-quality measurements. Relative standard deviations (RSD) for these parameters were calculated from the same number of replicates. […]

[2] = DLS buffer system A, 4 weeks storage at 40° C.
[3] = DLS buffer system B (phenol), 0 weeks
[4] = DLS buffer system B (phenol), 4 weeks storage at 40° C.

| Compound | EC50 (human GIP receptor; read-out: hGIPR EC50) | Emax (human GIP receptor) | Soluble amount (physchem; 24 h, pH 7.4) | solubility at 24 h (physchem; pH 7.4, Soluble amount) | I and SD (Scattering Intensity) ([1]; DLS buffer system A, 0 weeks) | M and SD (Mass Contribution) ([1]; DLS buffer system A, 0 weeks) | apparent Rh and SD ([1]; DLS buffer system A, 0 weeks) | I and SD (Scattering Intensity) [1, 2] | M and SD (Mass Contribution) [1, 2] | apparent Rh and SD [1, 2] | I and SD (Scattering Intensity) [1, 3] | M and SD (Mass Contribution) [1, 3] | apparent Rh and SD [1, 3] | I and SD (Scattering Intensity) [1, 4] | M and SD (Mass Contribution) [1, 4] | apparent Rh and SD [1, 4] |
| --- | --- | --- | --- | --- | --- | --- | --- | --- | --- | --- | --- | --- | --- | --- | --- | --- |
| CC[C@H](C)[C@H](NC(=O)[C@H](CCCNC(=N)N)NC(=O)[C@H](CC(=O)O)NC(=O)[C@H](CCCCNC(=O)COCCOCCNC(=O)COCCOCCNC(=O)CC[C@H](NC(=O)CCCCCCCCCCCCCCCCC(=O)O)C(=O)O)NC(=O)C(C)(C)NC(=O)[C@@H](NC(=O)[C@H](CO)NC(=O)[C@H](CC(C)C)NC(=O)[C@H](CC(=O)O)NC(=O)[C@H](CO)NC(=O)[C@@H](NC(=O)[C@H](Cc1ccccc1)NC(=O)[C@@H](NC(=O)CNC(=O)[C@H](CCC(=O)O)NC(=O)C(C)(C)NC(=O)[C@@H](N)Cc1ccc(O)cc1)[C@@H](C)O)[C@@H](C)CC)[C@@H](C)CC)C(=O)N[C@@H](Cc1c[nH]cn1)C(=O)N[C@@H](CCC(N)=O)C(=O)NC(C)(C)C(=O)N[C@@H](CCC(=O)O)C(=O)N[C@@H](Cc1ccccc1)C(=O)N[C@H](C(=O)N[C@@H](CCC(=O)O)C(=O)N[C@@H](Cc1c[nH]c2ccccc12)C(=O)N[C@@H](CC(C)C)C(=O)N[C@@H](CC(C)C)C(=O)N[C@@H](C)C(=O)N[C@@H](CCC(N)=O)C(=O)NCC(=O)N1CCC[C@H]1C(=O)N[C@@H](CO)C(=O)N[C@@H](CO)C(=O)NCC(=O)N[C@@H](C)C(=O)N1CCC[C@H]1C(=O)N1CCC[C@H]1C(=O)N1CCC[C@H]1C(=O)N[C@@H](CO)C(N)=O)[C@@H](C)CC [SEQ ID NO: 4, H2N-Y-Aib-E-G-T-F-I-S-D-I-S-I-Aib-K[{AEEA}2-gGlu-C18OH]-D-R-I-H-Q-Aib-E-F-I-E-W-I-L-A-Q-G-P-S-S-G-A-P-P-P-S-NH2] (H-Y[Aib]EGTFISDLSI[Aib]K([AEEA-AEEA-γGlu-C18 diacid])DRIHQ[Aib]EFIEWLLAQGPSSGAPPPS-NH2) | 0.5 nM | 116% | >8.4 mg/mL | > 9500 µg/mL | 93 ± 1% | 100 ± 0% | 1.91 ± 0.05 nm | 93 ± 1% | 100 ± 0% | 1.9 ± 0.04 nm | – | – | – | – | – | – |
| CC[C@H](C)[C@H](NC(=O)[C@H](Cc1ccccc1)NC(=O)[C@H](CCC(=O)O)NC(=O)[C@H](CCC(=O)O)NC(=O)[C@H](CCC(N)=O)NC(=O)[C@H](Cc1c[nH]cn1)NC(=O)[C@@H](NC(=O)[C@H](CCCNC(=N)N)NC(=O)[C@H](CC(=O)O)NC(=O)[C@H](CCCCNC(=O)COCCOCCNC(=O)COCCOCCNC(=O)CC[C@H](NC(=O)CCCCCCCCCCCCCCCCC(=O)O)C(=O)O)NC(=O)C(C)(C)NC(=O)[C@@H](NC(=O)[C@H](CO)NC(=O)[C@H](CC(C)C)NC(=O)[C@H](CC(=O)O)NC(=O)[C@H](CO)NC(=O)[C@@H](NC(=O)[C@H](Cc1ccccc1)NC(=O)[C@@H](NC(=O)CNC(=O)[C@H](CCC(=O)O)NC(=O)C(C)(C)NC(=O)[C@@H](N)Cc1ccc(O)cc1)[C@@H](C)O)[C@@H](C)CC)[C@@H](C)CC)[C@@H](C)CC)C(=O)N[C@@H](CCC(=O)O)C(=O)N[C@@H](Cc1c[nH]c2ccccc12)C(=O)N[C@@H](CC(C)C)C(=O)N[C@@H](CC(C)C)C(=O)N[C@@H](C)C(=O)N[C@@H](CCC(N)=O)C(=O)NCC(=O)N1CCC[C@H]1C(=O)N[C@@H](CO)C(=O)N[C@@H](CO)C(=O)NCC(=O)N[C@@H](C)C(=O)N1CCC[C@H]1C(=O)N1CCC[C@H]1C(=O)N1CCC[C@H]1C(=O)N[C@@H](CO)C(N)=O [SEQ ID NO: 9, H2N-Y-Aib-E-G-T-F-I-S-D-I-S-I-Aib-K[{AEEA}2-gGlu-C18OH]-DRIHQEEFIEWILAQGPSSGAPPPS-NH2] (H-Y[Aib]EGTFISDLSI[Aib]K([AEEA-AEEA-γGlu-C18 diacid])DRIHQEEFIEWLLAQGPSSGAPPPS-NH2) | – | 125% | – | – | 80 ± 3% | 100 ± 0% | 1.86 ± 0.03 nm | 80 ± 3% | 100 ± 0% | 1.87 ± 0.03 nm | 82 ± 3% | 100 ± 0% | 1.85 ± 0.04 nm | 97 ± 4% | 100 ± 0% | 1.73 ± 0.03 nm |

Reference: patent US20230103631A1, “PEPTIDES AS SELECTIVE GIP RECEPTOR AGONISTS” (Sanofi, priority 2020, published 2023)
